Measured values: patent US20090082304A1, “Methods of Treating Hematological Malignancies with Nucleoside Analog Drugs” (NORTHWESTERN UNIVERSITY, priority 2004, published 2009)

Assays:
Assay type in all cases: cell-based
MM cells = test system: MM cells
Protocol: The MTS assay was performed as described previously (Krett et al., Clin Cancer Res. 3: 1781-1787). Briefly, MM cells were cultured into 96 well dishes at a concentration of 25,000 cells per well and incubated with the 8-NH2-Ado for 72 hours. Cell proliferation was determined using the MTS Cell Titer Aqueous assay (Promega, Madison, Wis.), which measured the conversion of a tetrazolium compound into formazan by a mitochondrial dehydrogenase enzyme in live cells. The quantity of formazan product as measured by the amount of 490 nm absorbance is directly proportional to the number of living cells in culture. The data were expressed as the percentage of formazan produced by the cells treated with the control medium in the same assay.

MM.1 S cells = assay: Cell cycle analysis by flow cytometry (subG1 fraction); conditions: 10 μM, up to 4 hours
Protocol: MM1 S cells were incubated with 10 μM 8-NH2-adenosine 0.5, 1, 2, 4 or 24 hours. To determine the distribution of cells within the cell cycle, I×10^6 MM. I S cells were pelleted (500×g for 5 minutes at 4° C.), and washed twice in ice-cold PBS, fixed in ice-cold 70% ethanol, and stored at 4° C. until analyzed. Before analysis by flow cytometry, the fixed cells were pelleted, washed in PBS, and resuspended in ice-cold flow buffer (PBS containing 0.5% Tween 20, 15 μg/mL propidium iodide, and 5 μg/mL DNase-free RNase). The stained cells were analyzed using an Epics Profile II flow cytometer (Coulter Electronics, Inc., Hialeah, Fla.). FIG. 2 provides the results of this experiment. To ascertain whether the changes in phosphorylation levels of these key signaling molecules is a direct result of cell death, parallel cultures were assessed for cellular viability by cell cycle analysis. Cells undergoing apoptosis have a reduced DNA content caused by cleavage and loss of small DNA fragments. Therefore, apoptotic cells are identified as those cells in the subG1 fraction of the cell cycle.

caspase 9 = assay: Caspase 9 activation immunoblot in MM.1 S cells; conditions: 10 μM
Protocol: 5×10^6 were cells treated with 10 μM 8-NH2-Ado for the indicated times and harvested. Cell pellets were washed with cold phosphate-buffered saline (PBS; 8.1 g NaCl, 1.14 g Na2HPO4, 0.22 g KCl, and 0.25 g/L KH2PO4) and incubated with lysis buffer (50 mM HEPES, 150 mM NaCl, 1.5 mM MgCl2, 1 mM EDTA pH 8.0, 100 mM NaFI, 10 mM Na Pyrophosphate, 500 μM PMSF, 0.5% Triton X-100, 10% glycerol) at 4° C. for one hour. Lysates were centrifuged at 4° C. for 1 minute at 9000×g, and the supernatants were collected and stored at −20° C. Protein concentration was determined by Bio-Rad protein assay (BioRad Laboratories, Hercules, Calif.). Protein, at a concentration of 30 μg, was mixed with sample buffer (125 mM Tris, pH 6.8, 4% SDS, 20% glycerol, 100 mM Dithiothreitol (DTT), and 0.05% bromophenol blue), and fractionated on a pre-cast 8-16% Tris-Glycine gel (Invitrogen/Novex, Carlsbad, Calif.). […]
MM.1 S cells were exposed to 10 μM 8-NH2-Ado for 0, 0.5, 1, 2, 4 or 6 hours, after which cells were lysed as previously described. […] Total protein levels were also assessed to ensure equal loading and transfer (data not shown). […]

endogenous ATP = assay: Endogenous ATP pools
Protocol: MM.IS cells were grown in dextrose-free RPMI-1640 media (Invitrogen, Baltimore, Md.) supplemented with 10% fetal bovine serum, 2 mM glutamine, 100 units/ml penicillin, 100 μg/ml streptomycin and 2.5 μg/ml fungizone. Cellular ATP levels were manipulated by the addition of either antimycin (2 μM, a mitochondrial inhibitor) or 2-deoxy-D-glucose (2-DOG, 5 mM, an inhibitor of glycolysis) from Sigma (St. Louis, Mo.) with and without varying concentrations of dextrose. Six different metabolic conditions were examined: 1) antimycin without dextrose, 2) antimycin+0.25 mM dextrose, 3) antimycin+1 mM dextrose, 4) antimycin+10 mM dextrose, 5) 2-DOG without dextrose, 6) 2-DOG+10 mM dextrose. Control cells were not subjected to ATP depletion; 10 mM dextrose was added to dextrose-free RMPI-1640. Endogenous ATP was measured in a luciferase-based assay using the ATP Determination Kit from Molecular Probes (Eugene, Oreg.) and the levels corresponding to each treatment were normalized to untreated controls (20).

Structure (SMILES): Nc1ncnc2c1nc(N)n2[C@@H]1O[C@H](CO)[C@@H](O)[C@H]1O [8-NH2-Ado, 8-amino-adenosine]
- cytotoxicity (MM cells): cytotoxic
- effect on normal versus malignant cells (MM cells): differential effect
- subG1 fraction versus untreated cells (MM.1 S cells): no differences
- time at which cleaved and activated caspase 9 appears (caspase 9): 2 to 4 h
- endogenous ATP pools (endogenous ATP): dramatic shifts
